{"source": "ChEMBL document CHEMBL1201862", "about": "“PubChem BioAssay data set” (2004)", "key": {"[1]": {"molecular_target": "NACHT, LRR and PYD domains-containing protein 3 (Homo sapiens, UniProt Q96P20)", "sequence (Q96P20 whole entry, the tested form may be a part)": "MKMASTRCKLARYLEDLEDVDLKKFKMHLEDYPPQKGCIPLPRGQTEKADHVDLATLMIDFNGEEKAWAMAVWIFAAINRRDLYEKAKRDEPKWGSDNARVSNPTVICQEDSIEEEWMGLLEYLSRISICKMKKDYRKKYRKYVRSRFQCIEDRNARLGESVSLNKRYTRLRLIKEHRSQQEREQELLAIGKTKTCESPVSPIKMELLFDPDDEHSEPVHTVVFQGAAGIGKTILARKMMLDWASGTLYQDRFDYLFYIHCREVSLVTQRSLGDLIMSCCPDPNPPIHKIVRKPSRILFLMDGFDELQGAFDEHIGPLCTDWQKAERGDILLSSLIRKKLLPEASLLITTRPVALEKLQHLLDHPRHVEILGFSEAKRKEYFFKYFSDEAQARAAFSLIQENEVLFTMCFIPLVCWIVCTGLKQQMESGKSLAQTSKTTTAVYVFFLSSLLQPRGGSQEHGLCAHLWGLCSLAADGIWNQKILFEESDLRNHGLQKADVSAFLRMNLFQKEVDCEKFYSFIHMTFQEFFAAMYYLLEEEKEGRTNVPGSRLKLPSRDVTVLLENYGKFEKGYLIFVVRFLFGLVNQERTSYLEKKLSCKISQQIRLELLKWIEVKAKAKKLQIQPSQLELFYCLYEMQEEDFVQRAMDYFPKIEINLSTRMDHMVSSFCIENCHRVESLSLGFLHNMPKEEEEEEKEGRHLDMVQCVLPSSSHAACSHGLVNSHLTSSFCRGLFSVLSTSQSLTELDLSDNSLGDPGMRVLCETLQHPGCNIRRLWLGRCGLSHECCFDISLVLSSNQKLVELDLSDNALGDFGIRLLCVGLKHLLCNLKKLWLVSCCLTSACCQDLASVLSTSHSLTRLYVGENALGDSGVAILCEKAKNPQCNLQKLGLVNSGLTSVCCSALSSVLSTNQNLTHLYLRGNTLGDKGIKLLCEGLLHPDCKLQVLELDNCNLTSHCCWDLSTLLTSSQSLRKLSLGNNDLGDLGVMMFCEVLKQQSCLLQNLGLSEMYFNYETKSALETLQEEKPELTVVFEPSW", "assay": "NALP3 inhibitors in yeast, dose response, luminescent (AID 488799)", "type": "functional"}, "Chaperone protein dnaK": {"molecular_target": "Chaperone protein dnaK (Escherichia coli, UniProt C3TRK2)", "sequence (C3TRK2 whole entry)": "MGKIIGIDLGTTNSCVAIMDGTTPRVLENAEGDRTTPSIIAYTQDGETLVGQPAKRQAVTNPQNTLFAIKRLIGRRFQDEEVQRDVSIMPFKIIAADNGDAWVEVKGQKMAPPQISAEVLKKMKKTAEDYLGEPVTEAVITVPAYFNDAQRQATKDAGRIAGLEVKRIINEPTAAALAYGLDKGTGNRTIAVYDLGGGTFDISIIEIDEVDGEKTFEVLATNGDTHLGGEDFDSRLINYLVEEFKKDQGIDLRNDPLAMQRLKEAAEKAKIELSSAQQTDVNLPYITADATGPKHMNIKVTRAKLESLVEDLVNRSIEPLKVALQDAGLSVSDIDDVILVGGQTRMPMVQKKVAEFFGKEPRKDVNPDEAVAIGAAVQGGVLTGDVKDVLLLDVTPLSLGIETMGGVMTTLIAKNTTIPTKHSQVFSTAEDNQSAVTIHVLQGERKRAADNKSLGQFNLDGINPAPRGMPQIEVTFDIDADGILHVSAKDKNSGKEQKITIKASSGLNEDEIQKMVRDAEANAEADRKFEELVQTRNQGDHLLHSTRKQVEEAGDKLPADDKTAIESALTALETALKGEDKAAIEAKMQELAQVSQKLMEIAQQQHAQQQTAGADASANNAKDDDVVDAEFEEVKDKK", "assay": "E. coli DnaK binders, calorimetric Kd – biophysical, isothermal titration calorimetry, beta-domain, full-length DnaK, orthogonal assay for DnaK modulator project, SAR follow-up (AID 1495)"}, "[2]": {"assay": "ADP-Glo luciferase signal interference – biochemical, luminescence, cherry-picked samples, set 2, artefact control for CDK5 inhibitor project, dose response (AID 504546)", "type": "functional, cell-based"}, "[3]": {"assay": "Luminescence Cell-Based Dose Confirmation HTS to Identify Inhibitors of Platelet Dense Granule Release. [Related pubchem assays: 1663 (Primary HTS), 1678 (Summary of Project)]", "type": "functional"}, "Wee1-like protein kinase": {"molecular_target": "Wee1-like protein kinase (Homo sapiens, UniProt P30291)", "sequence (P30291 whole entry)": "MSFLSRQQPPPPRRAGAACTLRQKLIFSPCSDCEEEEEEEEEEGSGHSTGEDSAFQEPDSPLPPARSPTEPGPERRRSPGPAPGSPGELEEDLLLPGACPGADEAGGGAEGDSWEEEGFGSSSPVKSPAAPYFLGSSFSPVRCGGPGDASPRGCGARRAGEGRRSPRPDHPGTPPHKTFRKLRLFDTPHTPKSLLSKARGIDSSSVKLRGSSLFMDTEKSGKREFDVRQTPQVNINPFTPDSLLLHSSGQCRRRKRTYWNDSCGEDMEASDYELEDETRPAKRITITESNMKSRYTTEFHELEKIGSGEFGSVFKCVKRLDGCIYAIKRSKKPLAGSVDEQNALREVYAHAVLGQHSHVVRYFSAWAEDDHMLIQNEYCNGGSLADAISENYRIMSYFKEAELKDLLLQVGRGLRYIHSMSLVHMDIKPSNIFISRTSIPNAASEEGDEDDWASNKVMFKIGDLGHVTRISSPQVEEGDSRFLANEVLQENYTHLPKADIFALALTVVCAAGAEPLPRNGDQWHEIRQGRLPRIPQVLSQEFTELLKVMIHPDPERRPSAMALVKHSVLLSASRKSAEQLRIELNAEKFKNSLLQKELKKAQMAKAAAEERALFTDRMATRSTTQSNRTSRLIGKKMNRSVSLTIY", "assay": "HeLa cell cycle G2/M accumulation – FACS, mechanism study for Wee1 degradation inhibitor project, late-stage follow-up, panel member Wee1 Degradation (AID 2088)"}, "[4]": {"molecular_target": "G2/mitotic-specific cyclin-B1 (Homo sapiens, UniProt P14635)", "sequence (P14635 whole entry)": "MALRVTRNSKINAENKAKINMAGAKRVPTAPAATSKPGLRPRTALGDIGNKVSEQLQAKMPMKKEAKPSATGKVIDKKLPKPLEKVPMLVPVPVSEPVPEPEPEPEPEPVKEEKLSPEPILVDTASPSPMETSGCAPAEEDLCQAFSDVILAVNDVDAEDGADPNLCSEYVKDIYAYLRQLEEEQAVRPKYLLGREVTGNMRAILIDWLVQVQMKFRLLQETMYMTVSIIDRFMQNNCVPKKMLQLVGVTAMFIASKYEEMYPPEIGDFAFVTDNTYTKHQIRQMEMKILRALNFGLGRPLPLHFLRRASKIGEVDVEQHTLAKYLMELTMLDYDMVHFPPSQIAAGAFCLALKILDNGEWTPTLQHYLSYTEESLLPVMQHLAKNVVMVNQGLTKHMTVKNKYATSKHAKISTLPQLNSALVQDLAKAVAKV", "assay": "HeLa cell cycle G2/M accumulation – FACS, mechanism study for Wee1 degradation inhibitor project, late-stage follow-up, panel member Cyclin B Degradation (AID 2088)"}, "J774.A1": {"system": "J774.A1", "assay": "Confirmation of image-based Screening Assay for Inhibitors of Phagocytosis. [Related pubchem assays (depositor defined):AID1029, AID1643]", "type": "functional, cell-based", "conditions": "Mus musculus"}, "[5]": {"molecular_target": "Sphingosine 1-phosphate receptor 4 (Homo sapiens, UniProt O95977)", "assay": "potency of S1P4 activators – cell-based, fluorescence, synthesized compounds, late-stage follow-up (AID 463107)", "type": "functional"}, "[6]": {"molecular_target": "Dual specificity protein phosphatase 3 (Homo sapiens, UniProt P51452)", "sequence (P51452 whole entry)": "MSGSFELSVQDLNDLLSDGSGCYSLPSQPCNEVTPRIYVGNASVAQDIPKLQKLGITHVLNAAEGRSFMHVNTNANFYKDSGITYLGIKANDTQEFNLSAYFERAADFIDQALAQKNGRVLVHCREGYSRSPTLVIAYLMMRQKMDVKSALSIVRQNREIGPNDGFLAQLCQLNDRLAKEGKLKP", "assay": "inhibition constants for human DUSP3 – biochemical, colorimetric, SAR follow-up (AID 2004)"}, "[7]": {"assay": "non-specific 3'UTR reporter inhibition in Clone20-Shn3RL – cell-based, Renilla luciferase, cherry-picked, counter-screen for Shn3 inhibitor project, dose response (AID 624133)", "type": "functional"}, "Beta-galactosidase": {"molecular_target": "Beta-galactosidase (Escherichia coli, UniProt Q8VNN2)", "sequence (Q8VNN2 whole entry)": "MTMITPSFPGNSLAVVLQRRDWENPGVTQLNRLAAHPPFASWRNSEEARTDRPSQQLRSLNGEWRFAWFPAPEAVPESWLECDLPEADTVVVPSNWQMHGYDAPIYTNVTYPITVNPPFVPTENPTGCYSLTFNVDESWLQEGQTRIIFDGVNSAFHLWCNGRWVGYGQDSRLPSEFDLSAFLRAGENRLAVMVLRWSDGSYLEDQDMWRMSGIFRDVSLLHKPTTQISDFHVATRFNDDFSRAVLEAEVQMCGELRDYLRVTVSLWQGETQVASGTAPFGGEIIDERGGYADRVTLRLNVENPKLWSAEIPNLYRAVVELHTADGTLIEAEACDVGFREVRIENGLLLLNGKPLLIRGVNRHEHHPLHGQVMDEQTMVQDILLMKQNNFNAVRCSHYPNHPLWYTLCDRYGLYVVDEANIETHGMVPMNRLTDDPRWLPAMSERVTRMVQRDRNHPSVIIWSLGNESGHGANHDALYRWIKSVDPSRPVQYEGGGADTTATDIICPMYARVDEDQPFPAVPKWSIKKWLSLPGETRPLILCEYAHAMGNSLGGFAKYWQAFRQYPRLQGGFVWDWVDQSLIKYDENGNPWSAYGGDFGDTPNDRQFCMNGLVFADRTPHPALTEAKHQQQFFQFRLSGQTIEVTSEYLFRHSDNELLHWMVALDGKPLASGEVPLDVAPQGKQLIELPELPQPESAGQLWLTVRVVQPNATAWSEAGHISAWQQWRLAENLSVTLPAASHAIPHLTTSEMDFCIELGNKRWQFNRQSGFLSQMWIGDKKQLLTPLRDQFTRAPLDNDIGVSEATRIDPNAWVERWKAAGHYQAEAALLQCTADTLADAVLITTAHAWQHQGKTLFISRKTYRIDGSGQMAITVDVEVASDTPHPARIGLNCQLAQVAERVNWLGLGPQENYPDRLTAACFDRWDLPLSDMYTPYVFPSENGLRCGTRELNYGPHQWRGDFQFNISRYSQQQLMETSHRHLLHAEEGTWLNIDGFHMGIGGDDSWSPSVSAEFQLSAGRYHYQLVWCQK", "assay": "detection-enzyme interference by beta-gal modulators – biochemical, E. coli enzyme, set 3, artefact control for CCR6 antagonist project, dose response (AID 504712)", "type": "functional"}, "[8]": {"assay": "loss of viability in HepG2 cells – cell-based, CellTiter-Glo, cherry-picked, cytotoxicity control for Shn3 inhibitor project, dose response (AID 624134)", "type": "functional"}, "[9]": {"molecular_target": "C-C chemokine receptor type 6 (Homo sapiens, UniProt P51684)", "sequence (P51684 whole entry)": "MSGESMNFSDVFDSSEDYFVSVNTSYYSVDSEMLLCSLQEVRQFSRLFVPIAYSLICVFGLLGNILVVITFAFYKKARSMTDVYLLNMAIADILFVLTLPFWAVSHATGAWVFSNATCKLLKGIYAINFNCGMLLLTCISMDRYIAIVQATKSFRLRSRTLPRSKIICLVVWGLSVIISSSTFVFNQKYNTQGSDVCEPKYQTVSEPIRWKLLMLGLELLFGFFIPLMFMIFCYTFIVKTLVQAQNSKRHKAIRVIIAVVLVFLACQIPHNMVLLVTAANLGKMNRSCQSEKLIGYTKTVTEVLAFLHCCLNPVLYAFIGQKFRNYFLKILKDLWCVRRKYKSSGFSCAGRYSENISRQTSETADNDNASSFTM", "assay": "antagonism of CCR6 beta-arrestin recruitment – cell-based, luminescent beta-arrestin readout, dose response (AID 504728)", "type": "functional"}, "[10]": {"assay": "reduction of Shn3 3'UTR-driven luciferase in osteoblasts – cell-based, Clone20 osteoblasts, firefly luciferase, cherry-picked, dose response (AID 624132)", "type": "functional"}, "[11]": {"molecular_target": "Voltage-dependent T-type calcium channel subunit alpha-1H (Homo sapiens, UniProt O95180)", "assay": "human CACNA1H calcium influx blockade – cell-based, synthetic library set 1, calcium flux (AID 493022)", "type": "functional"}, "[12]": {"molecular_target": "Melanin-concentrating hormone receptor 1 (Homo sapiens, UniProt Q99705)", "sequence (Q99705 whole entry)": "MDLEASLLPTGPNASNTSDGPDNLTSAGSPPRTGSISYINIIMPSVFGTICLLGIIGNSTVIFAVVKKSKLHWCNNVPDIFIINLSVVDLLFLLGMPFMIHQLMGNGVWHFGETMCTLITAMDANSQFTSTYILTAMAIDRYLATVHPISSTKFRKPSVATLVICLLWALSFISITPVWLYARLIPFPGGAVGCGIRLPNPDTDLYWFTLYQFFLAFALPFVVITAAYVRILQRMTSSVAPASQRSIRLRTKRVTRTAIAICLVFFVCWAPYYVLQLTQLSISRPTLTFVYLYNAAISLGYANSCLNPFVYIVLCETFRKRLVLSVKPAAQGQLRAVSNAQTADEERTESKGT", "assay": "Fluorescence-based counterscreen for antagonists of the G-protein coupled receptor 7 (GPR7): cell-based high throughput dose response assay to identify antagonists of the melanin-concentrating hormone receptor 1 (MCHR1).", "type": "functional"}}, "note": "Calls of active or inactive are those of the source."}
{"smiles": "Cc1csc2nc(O)c(C(=O)NCCC3=CCCCC3)c(=O)n12", "values": [{"measurement": "IC50", "setting": "[1]", "value": "4.07 µM (active)"}]}
{"smiles": "O=C(NCc1cccc2ccccc12)c1cccs1", "values": [{"measurement": "Kd", "setting": "Chaperone protein dnaK", "value": "1.7 µM (active)"}]}
{"smiles": "COc1ccc(C(=O)O/N=C(\\N)c2ccccc2)cc1", "values": [{"measurement": "AC50", "setting": "[2]", "value": "37.7 µM (active)"}, {"measurement": "EC50", "setting": "[3]", "value": "0.921 µM (active)"}]}
{"smiles": "Cc1cc(O)nc(-n2nc(C)cc2NC(=O)/C=C/c2ccccc2)n1", "values": [{"measurement": "EC50", "setting": "Wee1-like protein kinase", "value": "> 16.6 µM (active)"}, {"measurement": "EC50", "setting": "[4]", "value": "> 49.7 µM (inactive)"}]}
{"smiles": "Cc1ccc(Nc2nc(-c3c(C)nc4ccccn34)cs2)cc1", "values": [{"measurement": "IC50", "setting": "J774.A1", "value": "< 0.05 µM (inactive)"}]}
{"smiles": "Cc1ccc(OCCOc2ccc(Oc3ccccc3)cc2)c([N+](=O)[O-])n1", "values": [{"measurement": "EC50", "setting": "[5]", "value": "> 50 µM (inactive)"}]}
{"smiles": "NC(=O)c1c(N)sc2c1CCCCCCCCCC2", "values": [{"measurement": "Ki", "setting": "[6]", "value": "39.8 µM (inactive)"}]}
{"smiles": "O=C1C(Br)=C(c2ccccc2)C(c2ccccc2)=C1c1ccccc1", "values": [{"measurement": "AC50", "setting": "[7]", "value": "4.75 µM (active)"}, {"measurement": "IC50", "setting": "Beta-galactosidase", "value": "> 66.6 µM (inactive)"}, {"measurement": "AC50", "setting": "[8]", "value": "38.8 µM (active)"}, {"measurement": "IC50", "setting": "[9]", "value": "> 66.6 µM (inactive)"}, {"measurement": "AC50", "setting": "[10]", "value": "0.46 µM (active)"}]}
{"smiles": "CC(Oc1ccccc1)C(=O)Nc1nnc(-c2ccc3c(c2)OCO3)o1", "note": "(stereo unspecified)", "values": [{"measurement": "EC50", "setting": "[11]", "value": "10 µM (active)"}]}
{"smiles": "CCN1CCN(C(=O)c2ccc3c(c2)N(Cc2ccc(C)cc2)CCS3)CC1", "values": [{"measurement": "IC50", "setting": "[12]", "value": "> 14.6 µM (not active)"}]}
